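A five-concentration, 48-hour dose response in 96-well plates underlies each endpoint, interpolated linearly between surrounding concentrations. GI50 = concentration required for 50% inhibition of growth. TGI denotes the concentration required for complete inhibition of growth.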
Columns and labels:
Test in all cases: NCI-60 cell line screen, 48 h
[1] = tested on: HT29 colon
[2] = tested on: SK-MEL-2 melanoma
[3] = tested on: MDA-N
[4] = tested on: HCT-15 colon
[5] = tested on: MOLT-4 leukemia
[6] = tested on: M14 melanoma
[7] = tested on: K-562 leukemia
[8] = tested on: SR leukemia
[9] = tested on: BT-549 breast
[10] = tested on: SN12C renal
[11] = tested on: LOX IMVI melanoma
[12] = tested on: IGROV1 ovarian
[13] = tested on: SNB-75 CNS
[14] = tested on: U251 CNS
[15] = tested on: NCI-H23 lung
[16] = tested on: NCI-H226 lung
[17] = tested on: SNB-19 CNS
[18] = tested on: KM12 colon
[19] = tested on: T-47D breast
[20] = tested on: OVCAR-8 ovarian
[21] = tested on: HS 578T breast
[22] = tested on: ACHN renal
[23] = tested on: CAKI-1 renal
[24] = tested on: DU-145 prostate
[25] = tested on: HCC-2998 colon
[26] = tested on: NCI-H522 lung
[27] = tested on: UACC-257 melanoma
[28] = tested on: A549 NSCLC
[29] = tested on: COLO 205 colon
[30] = tested on: NCI/ADR-RES ovarian
[31] = tested on: SK-MEL-28 melanoma
[32] = tested on: SF-295 CNS
[33] = tested on: UACC-62 melanoma
[34] = tested on: OVCAR-5 ovarian
[35] = tested on: A498 renal
[36] = tested on: OVCAR-3 ovarian
[37] = tested on: 786-0 renal
[38] = tested on: EKVX NSCLC
[39] = tested on: MDA-MB-435
[40] = tested on: NCI-H460 lung
[41] = tested on: HOP-62 NSCLC
[42] = tested on: SK-OV-3 ovarian
[43] = tested on: MDA-MB-231 breast
[44] = tested on: HOP-92 NSCLC
[45] = tested on: SF-268 CNS
[46] = tested on: TK-10 renal
[47] = tested on: MCF7 breast
[48] = tested on: UO-31 renal
[49] = tested on: RPMI-8226 leukemia
[50] = tested on: HL-60(TB) leukemia
[51] = tested on: SW-620 colon
[52] = tested on: OVCAR-4 ovarian
[53] = tested on: CCRF-CEM leukemia
[54] = tested on: HCT-116 colon
[55] = tested on: RXF 393 renal
[56] = tested on: SK-MEL-5 melanoma
[57] = tested on: PC-3 prostate
[58] = tested on: MALME-3M melanoma
[59] = tested on: SF-539 CNS

CCCCOC(=O)CC(CC(=O)OCCCC)(OC(C)=O)C(=O)OCCCC
GI50 [1]: 68.8 µM | TGI [1]: > 200 µM | TGI [2]: > 200 µM | TGI [3]: > 200 µM | TGI [4]: > 200 µM | GI50 [5]: 24.8 µM | TGI [5]: > 200 µM | TGI [6]: > 200 µM | GI50 [7]: 53.2 µM | TGI [7]: > 200 µM | GI50 [8]: 32.2 µM | TGI [8]: > 50.7 µM | TGI [9]: > 200 µM | TGI [10]: > 200 µM | GI50 [11]: 40.5 µM | TGI [11]: > 200 µM | TGI [12]: > 200 µM | TGI [13]: 56.4 µM | GI50 [14]: 92.6 µM | TGI [14]: > 200 µM | TGI [15]: > 200 µM | GI50 [16]: 55.6 µM | TGI [16]: 198 µM | TGI [17]: > 200 µM | TGI [18]: > 200 µM | GI50 [19]: 26.4 µM | TGI [19]: > 200 µM | TGI [20]: > 200 µM | TGI [21]: > 200 µM | TGI [22]: > 200 µM | TGI [23]: > 200 µM | TGI [24]: > 200 µM | TGI [25]: > 200 µM | TGI [26]: > 200 µM | TGI [27]: > 200 µM | TGI [28]: > 200 µM | TGI [29]: > 200 µM | GI50 [30]: 74.2 µM | TGI [30]: > 200 µM | TGI [31]: > 200 µM | GI50 [32]: 54.3 µM | TGI [32]: > 200 µM | TGI [33]: > 200 µM | TGI [34]: > 200 µM | TGI [35]: > 200 µM | TGI [36]: > 200 µM | TGI [37]: > 200 µM | TGI [38]: > 200 µM | TGI [39]: > 200 µM | TGI [40]: > 200 µM | TGI [41]: > 200 µM | TGI [42]: > 200 µM | TGI [43]: > 200 µM | TGI [44]: > 200 µM | TGI [45]: > 200 µM | TGI [46]: > 200 µM | TGI [47]: > 200 µM | TGI [48]: 98.2 µM | GI50 [49]: 29.2 µM | TGI [49]: 123 µM | GI50 [50]: 49.1 µM | TGI [50]: > 179 µM | TGI [51]: > 200 µM | GI50 [52]: 69.1 µM | TGI [52]: > 200 µM | TGI [53]: > 200 µM | GI50 [54]: 70.9 µM | TGI [54]: > 200 µM | GI50 [55]: 96 µM | TGI [55]: > 124 µM | GI50 [56]: 28.4 µM | TGI [56]: > 200 µM | GI50 [57]: 86.5 µM | TGI [57]: > 200 µM | TGI [58]: > 200 µM

O=[N+]([O-])/C(C(Cl)=C(Cl)Cl)=C(/Br)SCc1ccccc1
TGI [1]: 4.92 µM | TGI [2]: 13.8 µM | TGI [3]: 4.04 µM | TGI [4]: 4.98 µM | TGI [5]: 1.03 µM | TGI [6]: 5.79 µM | TGI [7]: 2.04 µM | TGI [59]: 21.4 µM | TGI [8]: 4.2 µM | TGI [9]: 4.22 µM | TGI [10]: 5.8 µM | TGI [11]: 4.24 µM | TGI [12]: 13.3 µM | TGI [13]: 9.02 µM | TGI [14]: 14.5 µM | TGI [15]: 12 µM | TGI [16]: 14.9 µM | TGI [17]: 27.7 µM | TGI [18]: 28.5 µM | TGI [19]: 13.5 µM | TGI [21]: 47.7 µM | TGI [22]: 6.85 µM | TGI [23]: 3.65 µM | TGI [24]: 25.7 µM | TGI [25]: 21.1 µM | TGI [26]: 4.49 µM | TGI [27]: 11.3 µM | TGI [28]: 15.2 µM | TGI [29]: 3.43 µM | TGI [30]: 15.3 µM | TGI [31]: 4.09 µM | TGI [32]: 31.5 µM | TGI [33]: 16.1 µM | TGI [34]: 18.5 µM | TGI [35]: 15.2 µM | TGI [36]: 5.02 µM | TGI [37]: 4.64 µM | TGI [38]: 12.5 µM | TGI [39]: 2.94 µM | TGI [40]: 24.1 µM | TGI [41]: 41.7 µM | TGI [42]: 36.4 µM | TGI [43]: 6.06 µM | TGI [44]: 5.28 µM | TGI [45]: 7.2 µM | TGI [46]: 9.61 µM | TGI [47]: 9.11 µM | TGI [48]: 5.72 µM | TGI [49]: 3.39 µM | TGI [50]: 0.905 µM | TGI [51]: 4.16 µM | TGI [52]: 8.19 µM | TGI [53]: 0.633 µM | TGI [54]: 4.13 µM | TGI [55]: 4.01 µM | TGI [56]: 16.4 µM | TGI [57]: 7.21 µM | TGI [58]: 11.9 µM

O=c1oc2ccc(Cl)cc2c2ccccc12
TGI [1]: > 100 µM | TGI [2]: 50.9 µM | TGI [3]: > 100 µM | TGI [4]: > 100 µM | TGI [5]: > 100 µM | TGI [6]: > 100 µM | TGI [7]: > 100 µM | TGI [59]: > 100 µM | TGI [8]: > 100 µM | TGI [9]: 37 µM | TGI [10]: > 100 µM | TGI [11]: > 100 µM | TGI [12]: > 100 µM | TGI [13]: 97.4 µM | TGI [14]: 33.7 µM | TGI [15]: 58.2 µM | TGI [16]: > 100 µM | TGI [17]: 45.1 µM | TGI [19]: > 100 µM | TGI [20]: > 100 µM | TGI [21]: 77.2 µM | TGI [22]: > 100 µM | TGI [23]: > 100 µM | TGI [24]: > 100 µM | TGI [25]: > 100 µM | TGI [26]: > 100 µM | TGI [27]: > 100 µM | TGI [28]: > 100 µM | TGI [29]: > 100 µM | TGI [30]: > 100 µM | TGI [31]: > 100 µM | TGI [32]: > 100 µM | TGI [33]: > 100 µM | TGI [34]: > 100 µM | TGI [35]: > 100 µM | TGI [36]: > 100 µM | TGI [37]: > 100 µM | TGI [38]: > 100 µM | TGI [39]: > 100 µM | TGI [40]: > 100 µM | TGI [41]: 45.1 µM | TGI [43]: 41.2 µM | TGI [44]: 93.5 µM | TGI [45]: 50.5 µM | TGI [46]: > 100 µM | TGI [47]: > 100 µM | TGI [49]: > 100 µM | TGI [50]: > 100 µM | TGI [51]: > 100 µM | TGI [52]: > 100 µM | TGI [53]: > 100 µM | TGI [54]: > 100 µM | TGI [55]: 58.9 µM | TGI [56]: > 100 µM | TGI [57]: > 100 µM | TGI [58]: > 100 µM

C=CCc1cccc2cc(C(=O)NC3CCCCC3)c(=N)oc12
TGI [1]: 57.7 µM | TGI [2]: 16.1 µM | TGI [3]: 47.3 µM | TGI [4]: 34.9 µM | TGI [5]: > 100 µM | TGI [6]: 39.1 µM | TGI [7]: > 100 µM | TGI [8]: > 100 µM | TGI [9]: > 100 µM | TGI [10]: 29.8 µM | TGI [11]: 34 µM | TGI [12]: > 100 µM | TGI [13]: 35 µM | TGI [14]: > 100 µM | TGI [15]: 51.8 µM | TGI [16]: 44.9 µM | TGI [17]: 72.8 µM | TGI [18]: 33 µM | TGI [19]: 52.8 µM | TGI [20]: 57.8 µM | TGI [21]: 31.4 µM | TGI [22]: 35 µM | TGI [23]: 37.9 µM | TGI [24]: 52.5 µM | TGI [25]: 31.2 µM | TGI [26]: > 100 µM | TGI [27]: 78 µM | TGI [28]: > 100 µM | TGI [29]: 33.5 µM | TGI [30]: > 100 µM | TGI [31]: 66.2 µM | TGI [33]: 41.2 µM | TGI [34]: 39 µM | TGI [35]: 52 µM | TGI [36]: 28.3 µM | TGI [37]: 31.2 µM | TGI [38]: > 100 µM | TGI [39]: 77.5 µM | TGI [40]: 35.9 µM | TGI [41]: 37.7 µM | TGI [42]: > 100 µM | TGI [43]: 35.9 µM | TGI [44]: > 100 µM | TGI [45]: 41.2 µM | TGI [47]: > 100 µM | TGI [49]: > 100 µM | TGI [50]: > 100 µM | TGI [51]: > 100 µM | TGI [52]: 63.1 µM | TGI [53]: > 100 µM | TGI [54]: 28.6 µM | TGI [55]: > 100 µM | TGI [56]: 27.4 µM | TGI [57]: 31.2 µM | TGI [58]: > 100 µM
